Where “and” joins values, the source holds several entries; their conditions need not be identical. Identical values can stand only once. Like-named read-outs stand apart in the source and are kept apart here.
Columns and labels:
[1] = tested on: non-tumour zebrafish larvae; assay: Maximum tolerated concentration (MTC) on non-tumour zebrafish larvae; type: in vivo, zebrafish (Danio rerio)
Protocol: Extended Data Fig. 7 Additional zebrafish experiment data. a MTC of β-GlcA-N1/E4 treatments on non-tumor zebrafish larvae. […] Toxicity was assessed daily by counting the total number of dead larvae and checking for the presence of morphologic changes such cardiac edemas or curved tails. Control groups were treated with the highest matched DMSO concentration (0.04%, v/v). b Left: representative image of phagocytosis in a xenograft treated with β-GlcA-N1/E4 and β-glucuronidase at 2dpi in Tg(mpeg1:mcherry-F). Each yellow arrow indicates a phagocytic event. Right: n° of phagocytic events at 2dpi. Data are presented as mean ± SEM. Statistical analysis follows that of Fig. 5. Source data

[2] = tested on: THP-1 Lucia ISG cells (interferon pathway); assay: Potency test of purified dimers on THP-1 Lucia ISG reporter cells; type: cell-based, human; settings: for EC50: three biological replicates, read-out: EC50, THP-1 Lucia interferon reporter; for Raw readings: replicates 1-3, duplicate wells
Protocol: Cells were pelleted (150g, 10 min) and resuspended in the growth medium (40% conditioned) at a density of 1 × 10^6 cells ml^−1. The cell suspension was dispensed (50 µl each well) into a lidded white 96-well plate (BrandTech 781665). Test compounds or DMSO control were diluted in the growth medium and sterilized by filtering through 0.22-µm polyethersulfone (PES) membranes (Merck SLGP033RS). […] Upon cooling down to room temperature, 50 µl of reconstituted luciferase substrate (InvivoGen QUANTI-Luc) was added to each well via the injector of the plate reader (Molecular Devices SpectraMax i3x), and the luminescence output was recorded (4 s delay, 0.1 s integration). Raw signals were divided by the averaged signal of the DMSO-treated control wells and reported in relative luminescence unit (RLU). The dose–response curve of each replicate was fitted individually using the standard 4PL model (GraphPad Prism). The EC50 value of each compound was averaged from three independent experiments and reported as mean ± s.e.m.

[3] = molecular target: T1, wild-type human STING LBD (hSTINGwt 138-379) (Homo sapiens, UniProt Q86WV6, H232R); assay: Isothermal titration calorimetry (ITC), reverse titration; type: binding
T1 construct: SUMO (N, cleaved yes); made in house; host or cells: Escherichia coli BL21 (DE3)
Protocol: Escherichia coli BL21 (DE3) (Thermo Scientific EC0114) was transformed with a pET28a plasmid (Genscript) harbouring the codon-optimized sequence of SUMO-hSTINGwt (aa138-379). Transformed BL21 cells were inoculated into LB medium (50 µg ml^−1 kanamycin) and incubated at 180 rpm, 37 °C overnight. The overnight culture was then diluted (1:100 dilution) in 2× YT medium (50 µg ml^−1 kanamycin) and incubated at 180 rpm, 37 °C until optical density at 600 nm (OD600) reached 0.6 (approximately 3 h). The bacterial culture was then cooled to 16 °C, induced with 0.5 mM isopropyl 1-thio-D-galactopyranoside and incubated overnight at 180 rpm, 16 °C. The bacterial cells were pelleted at 4,000g for 30 min, resuspended in 20 ml of lysis buffer (25 mM HEPES pH 7.5, 150 mM NaCl, 20 mM imidazole and 2 mM TCEP supplied with 2 tablets of cOmplete mini EDTA-free protease inhibitors) and disrupted by sonication on ice. The total lysate was clarified by centrifugation at 22,000g for 30 min. The supernatant was collected and filtered through a 0.45-µm filter (Millipore SLHAR33SS). The clarified lysate was then incubated on a roller with 10 ml bed volume of Ni-NTA resin (Thermo Scientific 88223) at 4 °C for 1 h. The Ni-NTA resin was then packed in a column, flushed with 20 ml of wash buffer (25 mM HEPES pH 7.5, 150 mM NaCl and 20 mM imidazole) and eluted with 40 ml of elution buffer (25 mM HEPES pH 8.0, 150 mM NaCl and 250 mM imidazole). The eluted protein was concentrated to approximately 5 ml (Millipore Amicon 10 kDa molecular weight cut-off (MWCO)) and buffer-exchanged into storage buffer (25 mM HEPES pH 7.5 and 150 mM NaCl). TCEP was then added to a final concentration of 2 mM, and 250 units of SUMO protease (Merck SAE0067) were added. The cleavage reaction mixture was left to stand at 4 °C overnight until LC–MS analysis indicated the completion of the cleavage reaction. The cleavage mixture was incubated with 10 ml bed volume of Ni-NTA resin on a roller at 4 °C for 1 h and packed in a disposable column. The flowthrough was collected, and the resin was further flushed with 20 ml of wash buffer. The eluted fractions were combined, concentrated and further purified by size-exclusion chromatography (Cytiva, Superdex 200 Increase 10/300 GL). The purified protein in storage buffer was concentrated to 330 µM (dimer concentration) as determined by bicinchoninic acid (BCA) assay, aliquoted, flash-frozen in liquid nitrogen and stored at −80 °C for future use.
The binding constants of purified dimers were measured by ITC (Malvern Panalytical AutoITC200) in a reverse-titration format. Stock DMSO solutions of each dimer were dissolved in titration buffer (25 mM HEPES pH 7.5 and 150 mM NaCl) to a final concentration of 25 µM and added to the titration cell. The syringe was filled with 250 µM of purified STING in a matching buffer. Titration was performed at 25 °C with the following parameters: 750 rpm stirring, 0.2 µl initial injection followed by 2-µl injections of the […] every 120 s. Titration of STING protein into blank buffer was separately performed and subtracted from the raw data before the analysis. The background-subtracted titration curves were fitted with the built-in Origin software using the standard one-site model.
Extended Data Fig. 2 Isothermal titration calorimetry (ITC) data for binding constant measurements. Purified hSTINGwt138-379 (250 μM of homodimer) was titrated into each dimer (25 μM) dissolved in a matching buffer (25 mM HEPES pH 7.5, 150 mM NaCl) at 25 °C and 750 rpm stirring. Binding constants were reported as the average from duplicate measurements.

[4] = Homo sapiens, THP1-Lucia ISG, 24 h

T1 sequence (Q86WV6 138-379 H232R): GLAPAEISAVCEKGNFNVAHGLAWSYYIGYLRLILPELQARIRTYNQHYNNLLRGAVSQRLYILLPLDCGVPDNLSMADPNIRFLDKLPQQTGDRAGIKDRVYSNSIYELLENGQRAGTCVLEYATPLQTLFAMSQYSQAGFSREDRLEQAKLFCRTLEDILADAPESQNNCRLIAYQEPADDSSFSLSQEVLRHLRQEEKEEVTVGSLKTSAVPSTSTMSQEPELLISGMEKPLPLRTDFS

SMILES: COc1cc2cc(C(=O)CCC(=O)O)sc2cc1OC [MSA2]
- MSA2 MTC, event per larva (0/1) ([1]; 15 μM, day 3): 0
- MSA2 MTC, survival event code per larva ([1]; 15 μM, Days 3, one cell per larva (0/1 code)): 0
- MSA2 MTC, event per larva (0/1) ([1]; 75 μM, day 1): 0
- MSA2 MTC, event per larva (0/1) ([1]; 75 μM, day 3): 1
- MSA2 MTC, survival event code per larva ([1]; 75 μM, Days 3, one cell per larva (0/1 code)): 0
- MSA2 MTC, survival event code per larva ([1]; 150 μM, Days 3, one cell per larva (0/1 code)): 0
- fold induction at 0.244141 µM ([2]; Homo sapiens, THP1-Lucia ISG, 24 h, Concentration 0.244141 μM, three replicates, read-out: Processed reporter response per replicate (reading relative to DMSO)): 1.21
- fold induction at 0.976563 µM ([2]; Homo sapiens, THP1-Lucia ISG, 24 h, Concentration 0.976563 μM, three replicates, read-out: Processed reporter response per replicate (reading relative to DMSO)): 1.26
- fold induction at 1.95312 µM ([2]; Homo sapiens, THP1-Lucia ISG, 24 h, Concentration 1.95312 μM, three replicates, read-out: Processed reporter response per replicate (reading relative to DMSO)): 0.95
- fold induction at 3.90625 µM ([2]; Homo sapiens, THP1-Lucia ISG, 24 h, Concentration 3.90625 μM, three replicates, read-out: Processed reporter response per replicate (reading relative to DMSO)): 1.7
- fold induction at 15.625 µM ([2]; Homo sapiens, THP1-Lucia ISG, 24 h, Concentration 15.625 μM, three replicates, read-out: Processed reporter response per replicate (reading relative to DMSO)): 316
- fold induction at 31.25 µM ([2]; Homo sapiens, THP1-Lucia ISG, 24 h, Concentration 31.25 μM, three replicates, read-out: Processed reporter response per replicate (reading relative to DMSO)): 499
- fold induction at 62.5 µM ([2]; Homo sapiens, THP1-Lucia ISG, 24 h, Concentration 62.5 μM, three replicates, read-out: Processed reporter response per replicate (reading relative to DMSO)): 530
- fold induction at 125 µM ([2]; Homo sapiens, THP1-Lucia ISG, 24 h, Concentration 125 μM, three replicates, read-out: Processed reporter response per replicate (reading relative to DMSO)): 553
- EC50 [2, 4]: 15000 nM
- Raw readings ([2]; MSA2 0.244141 uM): 644 RLU and 918 RLU and 1550 RLU and 217 RLU and 421 RLU
- Raw readings ([2]; MSA2 0.488281 uM): 365 RLU and 407 RLU and 1564 RLU and 1732 RLU and 767 RLU and 301 RLU
- Raw readings ([2]; MSA2 0.976563 uM): 533 RLU and 812 RLU and 1033 RLU and 1215 RLU and 1749 RLU and 577 RLU
- Raw readings ([2]; MSA2 1.95312 uM): 558 RLU and 456 RLU and 1596 RLU and 1428 RLU and 16030 RLU and 391 RLU
- Raw readings ([2]; MSA2 3.90625 uM): 737 RLU and 1083 RLU and 2552 RLU and 2286 RLU and 91800 RLU and 972 RLU
- Raw readings ([2]; MSA2 7.8125 uM): 10329 RLU and 8090 RLU and 44667 RLU and 40124 RLU and 159658 RLU and 39192 RLU
- Raw readings ([2]; MSA2 15.625 uM): 182029 RLU and 155323 RLU and 290195 RLU and 281155 RLU and 218467 RLU and 180884 RLU
- Raw readings ([2]; MSA2 31.25 uM): 283415 RLU and 249220 RLU and 393493 RLU and 394488 RLU and 219551 RLU and 327473 RLU
- Raw readings ([2]; MSA2 62.5 uM): 293238 RLU and 272508 RLU and 497557 RLU and 499850 RLU and 276937 RLU and 389453 RLU
- Raw readings ([2]; MSA2 125 uM): 315598 RLU and 275220 RLU and 511799 RLU and 524474 RLU and 276606 RLU and 386234 RLU

SMILES: COc1cc2sc(C(=O)CCC(=O)O)cc2cc1SCCSc1cc2cc(C(=O)CCC(=O)O)sc2cc1OC [SC2S]
- Kd ([3]; 25 °C, average of duplicate measurements, read-out: Kd hSTINGwt (binding constant, ITC)): 176 nM
- Kd ([3]; ITC run _01, read-out: Kd): 191 nM
- Kd ([3]; ITC run _02, read-out: Kd): 160 nM
- SC2S MTC, event per larva (0/1) ([1]; 0.62 μM, day 3): 1
- SC2S MTC, event per larva (0/1) ([1]; 3.1 μM, day 1): 0
- SC2S MTC, event per larva (0/1) ([1]; 3.1 μM, day 3): 0
- SC2S MTC, survival event code per larva ([1]; 6.2 μM, Days 3, one cell per larva (0/1 code)): 1
- fold induction at 0.048828 µM ([2]; Homo sapiens, THP1-Lucia ISG, 24 h, Concentration 0.048828 μM, three replicates, read-out: Processed reporter response per replicate (reading relative to DMSO)): 1.32
- fold induction at 1.5625 µM ([2]; Homo sapiens, THP1-Lucia ISG, 24 h, Concentration 1.5625 μM, three replicates, read-out: Processed reporter response per replicate (reading relative to DMSO)): 332
- fold induction at 3.125 µM ([2]; Homo sapiens, THP1-Lucia ISG, 24 h, Concentration 3.125 μM, three replicates, read-out: Processed reporter response per replicate (reading relative to DMSO)): 425
- fold induction at 6.25 µM ([2]; Homo sapiens, THP1-Lucia ISG, 24 h, Concentration 6.25 μM, three replicates, read-out: Processed reporter response per replicate (reading relative to DMSO)): 434
- fold induction at 12.5 µM ([2]; Homo sapiens, THP1-Lucia ISG, 24 h, Concentration 12.5 μM, three replicates, read-out: Processed reporter response per replicate (reading relative to DMSO)): 407
- EC50 [2, 4]: 710 nM
- Raw readings ([2]; SC2S 0.024414 uM): 620 RLU and 583 RLU and 1367 RLU and 1519 RLU and 365 RLU and 638 RLU
- Raw readings ([2]; SC2S 0.048828 uM): 577 RLU and 837 RLU and 1473 RLU and 1276 RLU and 668 RLU and 425 RLU
- Raw readings ([2]; SC2S 0.097656 uM): 783 RLU and 620 RLU and 2316 RLU and 2552 RLU and 1504 RLU and 372 RLU
- Raw readings ([2]; SC2S 0.195313 uM): 2302 RLU and 2526 RLU and 10005 RLU and 13263 RLU and 15158 RLU and 614 RLU
- Raw readings ([2]; SC2S 0.390625 uM): 13233 RLU and 15402 RLU and 73880 RLU and 85525 RLU and 96208 RLU and 759 RLU
- Raw readings ([2]; SC2S 0.78125 uM): 80951 RLU and 92499 RLU and 198651 RLU and 223105 RLU and 189225 RLU and 37417 RLU
- Raw readings ([2]; SC2S 1.5625 uM): 175164 RLU and 179560 RLU and 265669 RLU and 303539 RLU and 222866 RLU and 166854 RLU
- Raw readings ([2]; SC2S 3.125 uM): 222262 RLU and 231080 RLU and 301434 RLU and 333311 RLU and 245937 RLU and 322808 RLU
- Raw readings ([2]; SC2S 6.25 uM): 230364 RLU and 232723 RLU and 323434 RLU and 349356 RLU and 281517 RLU and 362047 RLU
- Raw readings ([2]; SC2S 12.5 uM): 216991 RLU and 217865 RLU and 313187 RLU and 335098 RLU and 238105 RLU and 315297 RLU

— publication PMC12669040, “Tumour-specific STING agonist synthesis via a two-component prodrug system” (Nature Chemistry, 2025)
